Results on three compounds are retold here after patent publication US5660842A, “Inhibition of helicobacter” (Bristol-Myers Squibb Company, priority 1995, dated 1997).

Converted amounts (≈) assume the structure as drawn. Where two headings read alike, the source gives them in different places.

For assay [1], the system named is Helicobacter pylori. Put plainly: Viability of H. pylori after 1 hour in prototype nutritional compositions containing FFA or MG (Example 3, Table 6). Particulars: for Change in viable cell number: 1 hour. Type of assay: cell-based, Helicobacter pylori (ATCC 43629).
Assay [2] deals with Helicobacter pylori. The assay is classed as cell-based, Helicobacter pylori (HP-2, HP-4, HP-5). To be noted: for Frequency of resistant mutants (number of spontaneous mutants): ~1 × 10^8 CFU.
The subject of assay [3] is Helicobacter pylori. Description: Minimal inhibitory concentration (MIC) for H. pylori (Example 5). The assay is classed as cell-based. To be noted: Helicobacter pylori, read-out: MIC.
The subject of assay [4] is Helicobacter pylori. Put plainly: Bactericidal activity of MG and FFA of varying chain length (Example 4, FIG. 1). The assay is classed as cell-based, Helicobacter pylori HP-4 (ATCC 43629). Particulars: FFA tested C4:0 to C17:0; 1 hour.
Another assay has as its system H. pylori. Particulars: reported in literature; cited from earlier work.
Setting [5] is: concentrations as low as two times the MIC.

The term MIC denotes the lowest concentration that inhibits growth of the organism. For the compound `CCCCCCCCCCCC(=O)O` [Lauric Acid, lauric acid], the “Change in viable cell number” value in the assay on Helicobacter pylori [1] (Nutrament (Formulation II), 20 mM) is on record as -0.42 LOG CFU/mL; in the assay on Helicobacter pylori [1] (Sustacal (Formulation I), 5 mM), 0.00 LOG CFU/mL; in the assay with Helicobacter pylori [1] (Sustacal (Formulation I), 10 mM) it was 0.05 LOG CFU/mL; in the assay on Helicobacter pylori [1] (Sustacal (Formulation I), 20 mM), -3.33 LOG CFU/mL; with Helicobacter pylori [1] (Ultracal (Formulation III), 5 mM), 0.33 LOG CFU/mL; with Helicobacter pylori [1] (Ultracal (Formulation III), 10 mM), -1.05 LOG CFU/mL. Further, the “Change in viable cell number” value in the assay on Helicobacter pylori [1] (Ultracal (Formulation III), 20 mM) was -3.96 LOG CFU/mL. For the same compound, the “Inhibition in nutritional compositions” value in the assay with Helicobacter pylori [1] (lower levels than 20 mM) is “not inhibitory”. The Frequency of resistance in the assay on Helicobacter pylori [2] (setting [5]) is on record as < 1×10^-8. Also, the “Resistant variants of H. pylori” value in the assay with Helicobacter pylori [2] (setting [5]) is given as “no resistant variants of H. pylori were found”. Also, the “Frequency of resistant mutants (number of spontaneous mutants)” value was below 1 with Helicobacter pylori [2] (strain 43529 (so in the source), 2 × MIC); below 1 in the assay with Helicobacter pylori [2] (strain 43529 (so in the source), 5 × MIC); below 1 in the assay on Helicobacter pylori [2] (strain 43529 (so in the source), 10 × MIC); below 1 in the assay on Helicobacter pylori [2] (strain 43579, 2 × MIC); below 1 in the assay with Helicobacter pylori [2] (strain 43579, 5 × MIC); below 1 in the assay with Helicobacter pylori [2] (strain 43579, 10 × MIC). Besides, the “Frequency of resistant mutants (number of spontaneous mutants)” value was below 1 with Helicobacter pylori [2] (strain 49503, 2 × MIC); below 1 in the assay on Helicobacter pylori [2] (strain 49503, 5 × MIC); below 1 in the assay with Helicobacter pylori [2] (strain 49503, 10 × MIC). Moreover, the MIC was 50 µg/mL (≈ 250 µM) with Helicobacter pylori [3] (Table 7) and around 50 µg/mL (≈ 250 µM) with Helicobacter pylori [3] (preliminary studies). Also, the “Bactericidal activity for H. pylori” value in the assay on Helicobacter pylori [4] is recorded as “showed bactericidal activity”.
For `CCCCC/C=C\C/C=C\C/C=C\C/C=C\CCCC(=O)O` [arachidonic acid], in the assay on H. pylori, the “Inhibitory effect on H. pylori” value is reported as “inhibitory effect on H. pylori”.
For the compound `CC/C=C\C/C=C\C/C=C\CCCCCCCC(=O)O` [ω-3 linolenic acid], the “Inhibitory effect on H. pylori” value with H. pylori is recorded as “inhibitory effect on H. pylori”.
